Measurements: article PMC3004530 (Journal of the American Chemical Society, 2010)

Legend:
HDAC = settings: cited from earlier work
HDAC8 = HDAC8 (Homo sapiens, UniProt Q9BY41)
HDAC6 = HDAC6 (Homo sapiens, UniProt Q9UBN7)
HDACs 1, 2 and 3 = experiment: Mode of inhibition / deacetylation progression; assay type: biochemical
HDAC1 = HDAC1 (Homo sapiens, UniProt Q13547); experiment: HDAC1 biochemical inhibition assay; settings: read-out: IC50 HDAC1
HDAC3 = HDAC3 (Homo sapiens, UniProt O15379); experiment: HDAC3 biochemical inhibition assay; settings: read-out: IC50 HDAC3
Chain of HDAC3 (O15379 whole entry, species assumed): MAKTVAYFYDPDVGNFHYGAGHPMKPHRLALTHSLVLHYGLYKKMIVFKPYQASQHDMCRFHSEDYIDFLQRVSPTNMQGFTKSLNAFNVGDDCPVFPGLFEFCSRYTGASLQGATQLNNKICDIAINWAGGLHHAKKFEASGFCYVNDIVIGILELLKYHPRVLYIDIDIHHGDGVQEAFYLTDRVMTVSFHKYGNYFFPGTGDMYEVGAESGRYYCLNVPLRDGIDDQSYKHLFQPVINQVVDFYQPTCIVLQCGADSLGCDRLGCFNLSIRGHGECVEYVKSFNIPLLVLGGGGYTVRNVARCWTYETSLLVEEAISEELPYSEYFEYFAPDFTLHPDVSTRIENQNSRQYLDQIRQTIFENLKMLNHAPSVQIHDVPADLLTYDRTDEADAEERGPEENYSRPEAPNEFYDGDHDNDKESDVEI
Chain of HDAC3 (Q9Y618 395-489 partner limits assumed, species assumed): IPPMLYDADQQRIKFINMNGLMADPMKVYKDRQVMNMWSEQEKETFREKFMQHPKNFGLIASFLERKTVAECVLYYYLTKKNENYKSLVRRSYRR

HDACs 4-8 = experiment: HDAC biochemical inhibition, HDACs 4-8; settings: data not shown
HDAC2 = HDAC2 (Homo sapiens, UniProt Q92769); experiment: HDAC2 high-throughput coupled biochemical assay
Chain of HDAC2 (Q92769 whole entry, species assumed): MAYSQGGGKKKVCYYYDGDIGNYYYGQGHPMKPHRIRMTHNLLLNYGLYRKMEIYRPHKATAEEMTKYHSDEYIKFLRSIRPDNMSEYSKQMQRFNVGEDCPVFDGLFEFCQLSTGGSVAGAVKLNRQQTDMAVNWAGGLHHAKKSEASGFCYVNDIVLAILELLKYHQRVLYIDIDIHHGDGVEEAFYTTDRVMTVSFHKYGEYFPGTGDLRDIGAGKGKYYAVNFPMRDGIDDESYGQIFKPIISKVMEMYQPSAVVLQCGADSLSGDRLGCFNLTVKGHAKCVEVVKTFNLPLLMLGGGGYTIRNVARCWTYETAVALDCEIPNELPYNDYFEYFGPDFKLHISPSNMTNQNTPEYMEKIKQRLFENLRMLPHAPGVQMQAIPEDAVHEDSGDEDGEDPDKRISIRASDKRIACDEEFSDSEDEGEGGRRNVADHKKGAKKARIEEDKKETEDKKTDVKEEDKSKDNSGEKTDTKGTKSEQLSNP

Chain of HDAC8 (Q9BY41 whole entry, species assumed): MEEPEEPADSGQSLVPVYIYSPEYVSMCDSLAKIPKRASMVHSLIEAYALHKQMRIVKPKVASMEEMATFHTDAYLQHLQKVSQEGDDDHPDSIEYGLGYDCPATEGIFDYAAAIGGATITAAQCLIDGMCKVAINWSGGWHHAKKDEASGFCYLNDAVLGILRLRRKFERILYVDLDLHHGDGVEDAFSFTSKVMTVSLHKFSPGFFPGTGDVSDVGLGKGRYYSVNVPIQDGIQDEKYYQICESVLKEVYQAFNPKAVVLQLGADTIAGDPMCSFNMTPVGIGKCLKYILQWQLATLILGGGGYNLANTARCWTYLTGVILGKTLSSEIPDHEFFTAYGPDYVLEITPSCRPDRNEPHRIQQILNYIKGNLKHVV
Chain of HDAC6 (Q9UBN7 whole entry, species assumed): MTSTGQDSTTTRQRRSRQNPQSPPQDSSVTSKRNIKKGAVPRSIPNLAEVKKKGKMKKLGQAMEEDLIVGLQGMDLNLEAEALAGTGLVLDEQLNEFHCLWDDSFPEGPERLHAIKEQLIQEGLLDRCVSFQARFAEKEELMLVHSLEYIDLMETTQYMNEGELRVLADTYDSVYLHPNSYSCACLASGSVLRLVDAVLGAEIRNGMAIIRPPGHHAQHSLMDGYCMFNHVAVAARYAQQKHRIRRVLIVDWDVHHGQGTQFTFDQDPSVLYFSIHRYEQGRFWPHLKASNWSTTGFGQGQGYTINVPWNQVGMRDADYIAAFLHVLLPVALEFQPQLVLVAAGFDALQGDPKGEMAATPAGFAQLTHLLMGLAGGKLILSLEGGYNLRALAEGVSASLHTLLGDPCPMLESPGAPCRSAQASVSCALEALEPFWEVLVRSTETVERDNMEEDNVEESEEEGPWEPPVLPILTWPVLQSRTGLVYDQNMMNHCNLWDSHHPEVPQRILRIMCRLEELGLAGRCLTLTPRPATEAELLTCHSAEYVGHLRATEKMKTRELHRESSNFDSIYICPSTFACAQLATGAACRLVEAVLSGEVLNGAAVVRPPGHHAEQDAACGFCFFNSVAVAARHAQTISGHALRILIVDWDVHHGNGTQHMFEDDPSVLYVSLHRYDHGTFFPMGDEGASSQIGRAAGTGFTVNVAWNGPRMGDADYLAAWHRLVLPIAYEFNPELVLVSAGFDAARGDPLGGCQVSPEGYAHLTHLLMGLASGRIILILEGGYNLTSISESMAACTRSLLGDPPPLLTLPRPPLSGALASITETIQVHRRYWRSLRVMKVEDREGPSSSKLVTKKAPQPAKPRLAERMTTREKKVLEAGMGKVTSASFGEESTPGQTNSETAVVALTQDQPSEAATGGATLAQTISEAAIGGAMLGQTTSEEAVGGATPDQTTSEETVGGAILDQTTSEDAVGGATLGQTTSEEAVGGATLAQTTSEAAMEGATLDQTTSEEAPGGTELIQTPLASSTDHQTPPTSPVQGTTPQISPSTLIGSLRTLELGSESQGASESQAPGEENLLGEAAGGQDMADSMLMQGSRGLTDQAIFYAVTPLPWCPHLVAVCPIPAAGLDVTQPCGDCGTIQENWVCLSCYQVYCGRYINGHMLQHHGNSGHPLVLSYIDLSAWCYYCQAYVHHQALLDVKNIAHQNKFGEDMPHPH
Chain of HDAC1 (Q13547 whole entry, species assumed): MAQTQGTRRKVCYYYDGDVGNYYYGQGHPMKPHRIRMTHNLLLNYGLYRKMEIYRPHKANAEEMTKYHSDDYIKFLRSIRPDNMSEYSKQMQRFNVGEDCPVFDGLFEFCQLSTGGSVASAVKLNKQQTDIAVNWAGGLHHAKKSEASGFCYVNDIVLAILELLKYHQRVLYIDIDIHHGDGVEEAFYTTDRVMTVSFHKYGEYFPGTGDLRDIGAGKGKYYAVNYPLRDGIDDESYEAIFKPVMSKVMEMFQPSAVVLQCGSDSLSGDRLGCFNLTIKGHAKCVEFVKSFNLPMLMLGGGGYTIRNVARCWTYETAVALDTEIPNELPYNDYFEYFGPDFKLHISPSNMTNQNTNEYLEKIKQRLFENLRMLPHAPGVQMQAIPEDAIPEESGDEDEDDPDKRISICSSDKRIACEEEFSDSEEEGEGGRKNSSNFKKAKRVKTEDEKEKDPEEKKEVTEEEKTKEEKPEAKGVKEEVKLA

In the case of `CCC(=O)CCCCC[C@@H]1NC(=O)[C@H]2CCCCN2C(=O)[C@H]([C@@H](C)CC)NC(=O)[C@H](Cc2cn(OC)c3ccccc23)NC1=O` [Apicidin], the HDAC class selectivity (HDAC) is given as “selectivity for class I HDACs” and the “potency in HDAC biochemical assay” value (HDAC) is given as “single digit nanomolar potency”.

In the case of `O=C(CCCCCCC(=O)Nc1ccccc1)NO` [SAHA], the “inhibition of HDAC8” value (HDAC8) is reported as “inhibits”, the “inhibition of HDAC6” value (HDAC6) is reported as “inhibits” and the “binding kinetics nature (deacetylation progression linear)” value (HDACs 1, 2 and 3) is reported as “fast-on/fast-off”.

For `C[C@@H]1CCCCO[C@@H](CN(C)Cc2ccc3c(c2)OCO3)[C@H](C)CN([C@@H](C)CO)C(=O)c2cc(N(C)C)ccc2O1` [entry 1], the IC50 (HDAC1) was 2.7 ± 0.3 µM, the IC50 (HDAC3) was 2.7 ± 0.2 µM and the “activity against HDACs 4-8” value (HDACs 4-8) was “inactive”. For the same compound, the “fold improvement in HDAC2 potency” value (HDAC2; compared to lead stereoisomer (2R,5S,6R,12R)-32) was greater than 10 fold and the IC50 (HDAC2; read-out: IC50 HDAC2) was 6.6 ± 0.4 µM.
